Experimental data as given in article PMC5750218, “Protein-inspired antibiotics active against vancomycin- and daptomycin-resistant bacteria” (Nature Communications, 2018).
Converted amounts (≈) assume the structure as drawn.

Key:
[1] = system: Bacillus subtilis ATCC 6633; assay: microbe, parasite or virus in culture; format: cell-based; details: for Ac2Kaa concentration required to neutralise MIC activity / MIC: ATCC 6633, 48 h; for Molar excess of Ac2Kaa ligand required to antagonise antibacterial activity: [ligand]/[antibiotic], B. subtilis ATCC 6633, 24 h
Description: All compounds were dissolved in H2O. Bacillus subtilis ATCC® 6633™ NRS-231 was cultured in MHB at 37 °C for 48 h. A sample of each culture was then diluted 40-fold in fresh MHB and incubated at 37 °C for 18 h. Compounds were added to each row of 96-well NBS plates (NBS, Corning 3641), in duplicate. The tripeptide N,N΄-diacetyl-L-Lys-D-Ala-D-Ala was serially diluted twofold across the compound-containing wells from 6400 to 3 µg mL^−1. To this the resultant mid-log phase cultures were diluted to the final concentration of 5 × 10^5 CFU mL^−1, then added to wells of the compound-containing plates. All the plates were covered and incubated at 37 °C for 24 h.

[2] = system: Vancomycin-intermediate S. aureus NRS1; assay: microbe, parasite or virus in culture; details: Vancomycin-intermediate NRS1
Description: (§1) Antimicrobial activity of compounds was tested against a number of bacterial strains by broth microdilution (BMD) assay with MIC determination, including S. aureus (MSSA ATCC® 29213™, MRSA ATCC® 43300™, VISA NARSA NRS1, VISA NARSA NRS4), Streptococcus pneumoniae (MDR ATCC® 700677™) and Enterococcus faecium (MDR VanA ATCC® 51559™). ATCC strains were sourced from the American Type Culture Collection and NRS strains from NARSA (Network on Antimicrobial Resistance in S. aureus) via BEI Resources (www.beiresources.org). All compounds were prepared to 160 µg mL^−1 solution in water from a stock solution of 1 mM concentration.
(§2) The compounds, along with standard antibiotics were serially diluted twofold across the wells of 96-well non-binding surface (NBS) polystyrene plates (Corning 3641). […] Standards ranged from 64 to 0.03 µg mL^−1 and compounds from 8 to 0.003 µg mL^−1 with final assay volumes of 100 µL per well. Gram-positive bacteria were cultured in Mueller Hinton broth (MHB) (Bactolaboratories, Cat. no. 211443) at 37 °C overnight. A sample of each culture was then diluted 40-fold in fresh MHB and incubated at 37 °C for 2–3 h. […] All the plates were covered and incubated at 37 °C for 24 h. MICs were the lowest concentration showing no visible growth.

[3] = system: Multi-drug-resistant S. pneumoniae ATCC 700677; assay: microbe, parasite or virus in culture; details: ATCC 700677
Description: as §1, §2

Cytotoxicity MTT assay [4] = format: cell-based, human; details: human
Description: (§3) Compound cytotoxicity was evaluated against HepG2 (ATCC-®HB-8065 liver hepatoceullular carcinoma) and HEK293 (ATCC®CRL-1573, embryonic kidney) human cell lines using standard (3-(4,5-dimethylthiazol-2-yl)−2,5-diphenyltetrazolium bromide (MTT) assay protocol with slight changes. In brief, HepG2 and HEK293 cells (assessed annually for mycoplasma contamination) were seeded as 1.5 × 10^4 cells per well in a clear 96-well tissue culture treated plate in a final volume of 100 μL in Dulbecco’s Modified Eagle Medium (DMEM)(GIBCO-Invitrogen #11995-073), in which 1% of FBS was added. Cells were incubated for 24 h at 37 °C, 5% CO2 to allow cells to attach to the plates. Compounds prepared at 100 µM to 0.046 µM in threefold dilutions were added into each well and incubated for 24 h at 37 °C, 5% CO2. After the incubation, 0.4 mg mL^−1 MTT (3-(4,5-dimethylthiazol-2-yl)−2,5-diphenyltetrazolium bromide) (Invitrogen) was added to each well. The plates were then incubated for 2 h at 37 °C, 5% CO2. The media was removed, and purple formazan crystals were resuspended in 60 μL of DMSO. The absorbance was read at 570 nm using a Polarstar Omega plate reader. The data was then analysed by Prism software. Results are presented as the average percentage of control ± S.D. for each set of duplicate wells using the following equation: percent viability = (ABSTEST – ABSPOSITIVE CTRL / ABSUNTREATED –ABS POSITIVE CTRL)×100.

[5] = system: Methicillin-resistant S. aureus ATCC 43300; assay: microbe, parasite or virus in culture; details: ATCC 43300, 24 h
Description: as §1
as §2, with “The compounds, along with standard antibiotics were serially diluted twofold across the wells of 96-well non-binding surface (NBS) polystyrene plates (Corning 3641).” left out

Cytotoxicity MTT assay [6] = format: cell-based, human; details: human; remark: listed apart in the source
Description: as §3, with “Compounds prepared at 100 µM to 0.046 µM in threefold dilutions were added into each well and incubated for 24 h at 37 °C, 5% CO2.” left out

[7] = system: Vancomycin-resistant (VanA) Enterococcus faecium ATCC 51559; assay: microbe, parasite or virus in culture; details: ATCC 51559
Description: as §1, §2

Row | Compound | Ac2Kaa concentration required to neutralise MIC activity [1] [µg/mL] | MIC [1] [µg/mL] | Molar excess of Ac2Kaa ligand required to antagonise antibacterial activity [1] | MIC VISA [2] [µg/mL] | MIC MDR S.P. [3] [µg/mL] | CC50 at 24 h (Cytotoxicity MTT assay [4]) [µM] | MIC MRSA [5] [µg/mL] | CC50 at 24 h (Cytotoxicity MTT assay [6]) [µM] | MIC VRE [7] [µg/mL]
1 | CCCCCCCCCCC(=O)NCC(=O)N[C@@H](CO)C(=O)N[C@@H](CCCCN)C(=O)N[C@@H](CCCCN)C(=O)N[C@@H](CCCCN)C(=O)N[C@@H](CCCCNC(=O)[C@H]1NC(=O)[C@H]2NC(=O)[C@H](NC(=O)[C@@H]3NC(=O)[C@H](CC(N)=O)NC(=O)[C@H](NC(=O)[C@@H](CC(C)C)NC)[C@H](O)c4ccc(c(Cl)c4)Oc4cc3cc(c4O[C@@H]3O[C@H](CO)[C@@H](O)[C@H](O)[C@H]3O[C@H]3C[C@](C)(N)[C@H](O)[C@H](C)O3)Oc3ccc(cc3Cl)[C@H]2O)c2ccc(O)c(c2)-c2c(O)cc(O)cc21)C(=O)O [Compound 39, nC10CO-GSKKK-K-(Vancomycin)-OH] | 400 | 0.06 (≈ 0.0264 µM) | 30,569 | – | – | – | – | – | –
2 | CN[C@H](CC(C)C)C(=O)N[C@H]1C(=O)N[C@@H](CC(N)=O)C(=O)N[C@H]2C(=O)N[C@H]3C(=O)N[C@H](C(=O)N[C@H](C(=O)NCCCC[C@H](NC(=O)[C@H](CCCCN)NC(=O)[C@H](CCCCN)NC(=O)[C@H](CCCCN)NC(=O)[C@H](CCCCNC(=O)c4ccc(Oc5ccccc5)cc4)NC(=O)c4ccc(Oc5ccccc5)cc4)C(=O)O)c4cc(O)cc(O)c4-c4cc3ccc4O)[C@H](O)c3ccc(c(Cl)c3)Oc3cc2cc(c3O[C@@H]2O[C@H](CO)[C@@H](O)[C@H](O)[C@H]2O[C@H]2C[C@](C)(N)[C@H](O)[C@H](C)O2)Oc2ccc(cc2Cl)[C@H]1O [Compound 42, POB2K-KKK-K-(Vancomycin)-OH] | 1600 | ≤ 0.004 | 131,225 | – | – | – | – | – | –
3 | CCCCCCCCCCCCCC(=O)NCC(=O)N[C@@H](CO)C(=O)N[C@@H](CCCCN)C(=O)N[C@@H](CCCCN)C(=O)N[C@@H](CCCCN)C(=O)N[C@@H](CCCCNC(=O)[C@H]1NC(=O)[C@H]2NC(=O)[C@H](NC(=O)[C@@H]3NC(=O)[C@H](CC(N)=O)NC(=O)[C@H](NC(=O)[C@@H](CC(C)C)NC)[C@H](O)c4ccc(c(Cl)c4)Oc4cc3cc(c4O[C@@H]3O[C@H](CO)[C@@H](O)[C@H](O)[C@H]3O[C@H]3C[C@](C)(N)[C@H](O)[C@H](C)O3)Oc3ccc(cc3Cl)[C@H]2O)c2ccc(O)c(c2)-c2c(O)cc(O)cc21)C(=O)O [Compound 16, nC13CO-GSKKK-K(Vancomycin)-OH] | – | – | – | 0.007 (≈ 0.00302 µM) | <0.003 | 53 | 0.06 (≈ 0.0259 µM) | 18 | –
4 | CN[C@H](CC(C)C)C(=O)N[C@H]1C(=O)N[C@@H](CC(N)=O)C(=O)N[C@H]2C(=O)N[C@H]3C(=O)N[C@H](C(=O)N[C@H](C(=O)NCCCC[C@H](NC(=O)[C@H](CCCCN)NC(=O)[C@H](CCCCN)NC(=O)[C@H](CCCCN)NC(=O)c4ccc(Oc5ccccc5)cc4)C(=O)O)c4cc(O)cc(O)c4-c4cc3ccc4O)[C@H](O)c3ccc(c(Cl)c3)Oc3cc2cc(c3O[C@@H]2O[C@H](CO)[C@@H](O)[C@H](O)[C@H]2O[C@H]2C[C@](C)(N)[C@H](O)[C@H](C)O2)Oc2ccc(cc2Cl)[C@H]1O [Compound 40, POB-KKK-K-(Vancomycin)-OH] | 12.5 | 0.03 (≈ 0.0139 µM) | 916 | – | – | – | – | – | –
5 | CN[C@H](CC(C)C)C(=O)N[C@H]1C(=O)N[C@@H](CC(N)=O)C(=O)N[C@H]2C(=O)N[C@H]3C(=O)N[C@H](C(=O)N[C@H](C(=O)NCCCC[C@H](NC(=O)[C@H](CCCCN)NC(=O)[C@H](CCCCN)NC(=O)c4ccc(Oc5ccccc5)cc4)C(=O)O)c4cc(O)cc(O)c4-c4cc3ccc4O)[C@H](O)c3ccc(c(Cl)c3)Oc3cc2cc(c3O[C@@H]2O[C@H](CO)[C@@H](O)[C@H](O)[C@H]2O[C@H]2C[C@](C)(N)[C@H](O)[C@H](C)O2)Oc2ccc(cc2Cl)[C@H]1O [Compound 41, POB-KK-K-(Vancomycin)-OH] | 1.56 | 0.06 (≈ 0.0296 µM) | 104 | – | – | – | – | – | –
6 | CNC(=O)[C@H](CCCCNC(=O)[C@H]1NC(=O)[C@H]2NC(=O)[C@H](NC(=O)[C@@H]3NC(=O)[C@H](CC(N)=O)NC(=O)[C@H](NC(=O)[C@@H](CC(C)C)NC)[C@H](O)c4ccc(c(Cl)c4)Oc4cc3cc(c4O[C@@H]3O[C@H](CO)[C@@H](O)[C@H](O)[C@H]3O[C@H]3C[C@](C)(N)[C@H](O)[C@H](C)O3)Oc3ccc(cc3Cl)[C@H]2O)c2ccc(O)c(c2)-c2c(O)cc(O)cc21)NC(=O)[C@H](CCCCN)NC(=O)[C@H](CCCN)NC(=O)[C@H](CCCCNC(=O)c1ccc(Oc2ccccc2)cc1)NC(=O)c1ccc(Oc2ccccc2)cc1 [Compound 33, POB2K-Orn-K-K(Vancomycin)-NHMe] | – | – | – | 0.125 (≈ 0.0531 µM) | 0.007 (≈ 0.00297 µM) | – | <0.003 | – | 1.5 (≈ 0.637 µM)
7 | CNC(=O)[C@H](CCCCNC(=O)[C@H]1NC(=O)[C@H]2NC(=O)[C@H](NC(=O)[C@@H]3NC(=O)[C@H](CC(N)=O)NC(=O)[C@H](NC(=O)[C@@H](CC(C)C)NC)[C@H](O)c4ccc(c(Cl)c4)Oc4cc3cc(c4O[C@@H]3O[C@H](CO)[C@@H](O)[C@H](O)[C@H]3O[C@H]3C[C@](C)(N)[C@H](O)[C@H](C)O3)Oc3ccc(cc3Cl)[C@H]2O)c2ccc(O)c(c2)-c2c(O)cc(O)cc21)NC(=O)[C@H](CN)NC(=O)[C@H](CN)NC(=O)[C@H](CCCCNC(=O)c1ccc(Oc2ccccc2)cc1)NC(=O)c1ccc(Oc2ccccc2)cc1 [Compound 29, POB2K-Dap-Dap-K(Vancomycin)-NHMe] | – | – | – | 0.0925 (≈ 0.0405 µM) | 0.0085 (≈ 0.00372 µM) | – | 0.0045 (≈ 0.00197 µM) | – | 0.75 (≈ 0.328 µM)
